Where two headings read alike, the source gives them in different places.
Experiments:
[1] = Evaluation of hygroscopicity (dynamic steam adsorption, weight change); assay type: physicochemical; settings: 25° C., within the range 5–95% relative humidity
Protocol: A sample (about 5 mg) was placed in a purpose-made quartz holder, and the sample weight at the respective humidity was continuously measured and recorded in the following conditions. The apparatus including data processing was operated according to the method and procedure directed in each device. (Apparatus: dynamic steam adsorption measuring apparatus DVS Advantage, made by SMS)

[2] = Evaluation of stability (1): forced degradation test, impurities by LC; settings: for Change from Impurity Amt. before Storage (%), Condition 3 / Change from Impurity Amt. before Storage (%), Condition 2: 25° C., 5 days; for Change from Impurity Amt. before Storage (%), Condition 3: NUV (near ultraviolet ray) irradiated; for Change from Impurity Amt. before Storage (%), Condition 3 / Change from Impurity Amt. before Storage (%), Condition 1: tightly closed; for Change from Impurity Amt. before Storage (%), Condition 2: relative humidity 93%, open; for Change from Impurity Amt. before Storage (%), Condition 1: 120° C., 24 hours
Protocol: A sample after storage was dissolved in 1 mL of MeOH and used as a sample solution. The sample solution was diluted 100 times with MeOH and used as a standard solution. Impurities contained in the sample solution was quantitatively analyzed using the standard solution. In this determination, the apparatus including data processing was operated according to the method and procedure directed in each device. (Apparatus: LC-MSD 1100 series, made by Agilent)

muscarinic M3 receptors = molecular target: T1, muscarinic M3 receptors (Cavia porcellus, UniProt H0W1Z3); experiment: Functional affinity estimate for muscarinic M3 receptors in bladders (carbachol-induced intracellular Ca2+ change in bladder smooth muscle cells); assay type: cell-based, guinea pig; settings: for IC50: inhibition of carbachol-induced Ca2+ increase, guinea pig bladder smooth muscle cells, Fura2; for Ki: IC50 converted by Cheng-Prusoff equation based on EC50 of carbachol
T1 construct: Smooth muscle cells were isolated from guinea pig bladders; from tissue; host or cells: smooth muscle cells freshly isolated from guinea pig bladder
Protocol: Below, the method is described in brief.
Smooth muscle cells were isolated from guinea pig bladders from which the […] had been removed, loaded with a calcium-sensitive fluorescent dye Fura2 and suspended in phenol red-free Hanks' buffer solution supplemented with 20 mM HEPES (pH 7.4) and 0.1% bovine serum albumin. An aliquot of cell suspension (490 μL) was continuously stirred, kept at 28° C. and monitored for the ratio of fluorescence (500 nm) at 340 nm excitation to that at 380 nm excitation. To each aliquot, 5 μL of test compound and carbachol solutions were serially added with a 2 minute interval, and the peak increase in the ratio over the level just before stimulation was used in data analysis.

[3] = system: carbachol-evoked bladder contraction; experiment: Inhibitory effects on carbachol-evoked bladder contraction in anesthetized mice; assay type: in vivo; settings: anesthetized female mice, i.v., carbachol 10 μg/kg, intravesical pressure
Protocol: The method for determination of inhibitory effects of test compounds on bladder contraction is described as follows.
Female mice, weighing 30 to 35 g, were anesthetized with a sub-lethal dose (75 mg/kg, i.v.) of sodium pentobarbital and placed supine on a heating pad to maintain the body temperature. A polyethylene catheter (PE10) was cannulated to the bladder via the urethra and secured by purse-string suture at the external urethral opening. Another catheter was inserted into the femoral vein for injections of drug solutions at a […]. The bladder catheter was connected to a pressure transducer through a three-way stopcock valve. The bladder was emptied by drainage of urine through the catheter, and then distended with about 100 μL of physiological saline, and the intravesical pressure was measured.
After intravesical pressure stabilization, the muscarinic agonist carbachol (10 μg/kg) was administered repeatedly with an interval of 15 minutes or longer. By this means, bladder contractions occurred in a reproducible manner over 2 hours without deterioration of physical conditions. After three responses to carbachol were obtained, a test compound injection was followed by carbachol administration 10 minutes later and this procedure was repeated with increasing doses of the test compound. In four or five mice per test compound, the percent inhibition of means of prior drug responses was obtained and the dose of test compound required for 50% inhibition (ID50) was estimated by the linear regression analysis. Mice showing rhythmic bladder constriction were not used for the data analysis.

T1 sequence (H0W1Z3 1-590): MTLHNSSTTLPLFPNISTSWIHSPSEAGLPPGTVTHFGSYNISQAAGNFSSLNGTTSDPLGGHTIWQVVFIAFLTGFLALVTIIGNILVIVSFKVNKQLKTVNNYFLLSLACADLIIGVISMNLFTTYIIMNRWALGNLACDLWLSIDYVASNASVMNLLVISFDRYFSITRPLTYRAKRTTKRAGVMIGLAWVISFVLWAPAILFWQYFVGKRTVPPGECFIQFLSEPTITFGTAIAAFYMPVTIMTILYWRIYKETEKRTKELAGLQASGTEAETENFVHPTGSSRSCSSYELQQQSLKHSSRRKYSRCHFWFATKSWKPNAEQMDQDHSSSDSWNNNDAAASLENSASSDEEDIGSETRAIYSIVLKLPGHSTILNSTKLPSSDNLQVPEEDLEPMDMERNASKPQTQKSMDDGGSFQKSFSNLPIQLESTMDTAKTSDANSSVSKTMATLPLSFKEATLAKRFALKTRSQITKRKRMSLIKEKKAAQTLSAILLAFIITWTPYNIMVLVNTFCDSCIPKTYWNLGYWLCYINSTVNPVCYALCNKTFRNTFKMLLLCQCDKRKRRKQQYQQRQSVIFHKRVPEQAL

Compound | Weight Change (%) [1] [%] | Change from Impurity Amt. before Storage (%), Condition 3 [2] [%] | Change from Impurity Amt. before Storage (%), Condition 2 [2] [%] | Change from Impurity Amt. before Storage (%), Condition 1 [2] [%] | Impurities before Storage (%) [2] [%] | IC50 (muscarinic M3 receptors; IC50 (ng/mL)) [nM] | Ki (muscarinic M3 receptors; Ki (nM)) [nM] | Change from Impurity Amt. before Storage (%), Condition 3 ([2]; benzenesulfonate) [%] | Change from Impurity Amt. before Storage (%), Condition 2 ([2]; benzenesulfonate) [%] | Change from Impurity Amt. before Storage (%), Condition 1 ([2]; benzenesulfonate) [%] | Impurities before Storage (%) ([2]; benzenesulfonate) | ID50 (dose required for 50% inhibition of bladder contraction) [3] [mg/kg] | Ki (muscarinic M3 receptors; read-out: Ki) [nM] | IC50 (muscarinic M3 receptors) [ng/mL] | Increase of impurities under heat ([2]; Condition 1 of Test Example 2 (stability test to heat))
O=C(O[C@H]1CN2CCC1CC2)N1CCc2ccccc2[C@H]1c1ccccc1 [Example 2, (−)-(3R)-quinuclidin-3-yl(1R)-1-phenyl-1,2,3,4-tetrahydroisoquinoline-2-carboxylate (+)-(2S,3S)-di-O-benzoyltartrate] | <1 | 0.0 | 0.1 | 0.2 | 0.0 | 8.83 | 0.62 ± 0.16 | – | – | – | – | – | – | – | –
O=C(O[C@H]1CN2CCC1CC2)N1CCc2ccccc2[C@H]1c1ccccc1 [Example 3, (−)-(3R)-quinuclidin-3-yl(1R)-1-phenyl-1,2,3,4-tetrahydroisoquinoline-2-carboxylate (+)-(2S,3S)-di-O-(4-methylbenzoyl)tartrate] | <1 | 0.0 | 0.1 | 2.3 | 0.0 | 10.5 | 0.69 ± 0.19 | – | – | – | – | – | – | – | –
O=C(O[C@H]1CN2CCC1CC2)N1CCc2ccccc2[C@H]1c1ccccc1.O=S(=O)(O)c1ccccc1 [Example 5, (−)-(3R)-quinuclidin-3-yl(1R)-1-phenyl-1,2,3,4-tetrahydroisoquinoline-2-carboxylate benzenesulfonate] | <1 | – | – | – | – | 3.46 | 0.47 ± 0.12 | −0.1 | 0.1 | 0.3 | 1.6 | 0.059 | – | – | –
O=C(O[C@H]1CN2CCC1CC2)N1CCc2ccccc2[C@H]1c1ccccc1.O=S(=O)(O)c1ccccc1 [Example 5-1, (−)-(3R)-quinuclidin-3-yl(1R)-1-phenyl-1,2,3,4-tetrahydroisoquinoline-2-carboxylate benzenesulfonate] | <1 | – | – | – | – | – | – | −0.2 | 0.0 | −0.1 | 1.8 | – | – | – | –
Br.O=C(O[C@H]1CN2CCC1CC2)N1CCc2ccccc2[C@H]1c1ccccc1 [Example 7, (−)-(3R)-quinuclidin-3-yl(1R)-1-phenyl-1,2,3,4-tetrahydroisoquinoline-2-carboxylate hydrobromide] | <4 | 0.3 | 0.2 | −0.2 | 0.5 | 4.06 | 0.66 ± 0.28 | – | – | – | – | 0.050 | – | – | –
Cc1ccc(S(=O)(=O)O)cc1.O=C(O[C@H]1CN2CCC1CC2)N1CCc2ccccc2[C@H]1c1ccccc1 [Example 11, (−)-(3R)-quinuclidin-3-yl(1R)-1-phenyl-1,2,3,4-tetrahydroisoquinoline-2-carboxylate p-toluenesulfonate] | <6 | 0.0 | 0.1 | −0.1 | 0.5 | 4.11 | 0.52 ± 0.13 | – | – | – | – | – | – | – | –
CCS(=O)(=O)O.O=C(O[C@H]1CN2CCC1CC2)N1CCc2ccccc2[C@H]1c1ccccc1 [Example 12, (−)-(3R)-quinuclidin-3-yl(1R)-1-phenyl-1,2,3,4-tetrahydroisoquinoline-2-carboxylate ethanesulfonate] | <5 | −0.1 | −0.1 | −0.2 | 1.4 | 4.02 | 0.54 ± 0.055 | – | – | – | – | – | – | – | –
CS(=O)(=O)O.O=C(O[C@H]1CN2CCC1CC2)N1CCc2ccccc2[C@H]1c1ccccc1 [Example 13, (−)-(3R)-quinuclidin-3-yl(1R)-1-phenyl-1,2,3,4-tetrahydroisoquinoline-2-carboxylate methanesulfonate] | <25 | – | – | – | – | – | – | – | – | – | – | – | – | – | –
(−)-(3R)-quinuclidin-3-yl(1R)-1-phenyl-1,2,3,4-tetrahydroisoquinoline-2-carboxylate (+)-camphor-10-sulfonate [Example 10] | <2 | 0.0 | 0.0 | 0.0 | 0.9 | – | – | – | – | – | – | – | 0.65 ± 0.12 | 2.6 ± 0.42 | –
(−)-(3R)-quinuclidin-3-yl(1R)-1-phenyl-1,2,3,4-tetrahydroisoquinoline-2-carboxylate (−)-L-phenylalaninate [Example 4] | <2 | −0.3 | −0.3 | 50.8 | 1.9 | – | – | – | – | – | – | 0.090 | 0.66 ± 0.046 | 2.5 ± 0.044 | increase of impurities
(−)-(3R)-quinuclidin-3-yl(1R)-1-phenyl-1,2,3,4-tetrahydroisoquinoline-2-carboxylate methyl phosphate [Example 14] | <11 | – | – | – | – | – | – | – | – | – | – | – | – | – | –
(−)-(3R)-quinuclidin-3-yl(1R)-1-phenyl-1,2,3,4-tetrahydroisoquinoline-2-carboxylate naphthalene-2-sulfonate [Example 8] | <4 | 2.6 | 0.2 | 1.3 | 2.0 | – | – | – | – | – | – | 0.057 | 0.55 ± 0.12 | 2.3 ± 0.87 | –
(−)-(3R)-quinuclidin-3-yl(1R)-1-phenyl-1,2,3,4-tetrahydroisoquinoline-2-carboxylate sebacate [Example 9] | <1 | −0.8 | 0.2 | −0.3 | 3.7 | – | – | – | – | – | – | – | 0.56 ± 0.048 | 2.2 ± 0.33 | –
